Among the data in US20120053148A1, “INHIBITORS OF HEPATITIS C VIRUS” (GILEAD SCIENCES, INC., priority 2010, published 2012) are EC50 and inhibition values, retold here.

For one experiment, the system named is HCV Replicon IB. In words: HCV replicon assay in Huh-7 cells, genotype 1b (Rluc luciferase readout). The note with it: HCV1B replicon, Huh-7 cells, 3 days; read-out: EC50_HCV1B_. The class given is cell-based, hepatitis C virus.
Take `Cc1cc(-c2nnc(N[C@H]3C[C@](O)(CO)C3)o2)nc2c(C(C)(C)C)cc(C3CC3)cc12` [Compound 513]: the EC50 worked out at 8.11 nM.

Still in this experiment, the particulars now being: Hepatitis C virus, 72 h; 10 uM; 1b-Rluc replicon, Huh-7 cells, 3 days; read-out: Inhibition @ 10 uM in 1b-Rluc.
As for `Cc1cc(C(F)(F)F)c2nc(C(=O)NCc3ccccn3)cc(C)c2c1` [Compound 143], the inhibition at 10 µM amounted to 93.7%.

Regarding `Cc1cc(-c2nnc(NCCCCO)o2)nc2c(C(C)(C)C)cc(C3CC3)cc12` [Compound 284], the inhibition at 10 µM was determined as 99.9%.

Consider `Cc1cc(C(=O)NCC2(N)CC2)nc2c(C(F)(F)F)cc(C3CC3)cc12` [Compound 88], for which the inhibition at 10 µM came out at 95.6%.

For the compound `Cc1cc(C(=O)NCc2ccccn2)nc2c(C(F)(F)F)cc(C(C)C)cc12` [Compound 157], the inhibition at 10 µM turned out to be 98.8%.

For `Cc1cc(C(=O)NCc2ccccn2)nc2c(C(F)(F)F)cc(N(C)S(C)(=O)=O)cc12` [Compound 179], the inhibition at 10 µM stood at 98.9%.

With `Cc1cc(-c2nnc(NCC3OCCO3)o2)nc2c(C(F)(F)F)cc(OCC(F)(F)F)cc12` [Compound 280], the inhibition at 10 µM was 99.9%.

As to `CC(=O)N(C)c1cc(C(F)(F)F)c2nc(C(=O)NCc3ccccn3)cc(C)c2c1` [Compound 180], the inhibition at 10 µM was determined as 65.5%.

On to `Cc1cc(-c2nnc(NCCCO)o2)nc2c(C(F)(F)F)cc(C3CC3)cc12` [Compound 249], for which the inhibition at 10 µM was found to be 100%.

Take `COCCCNc1nnc(-c2cc(C)c3cc(C4CC4)cc(C(F)(F)F)c3n2)o1` [Compound 245]: the inhibition at 10 µM worked out at 100%.

Take `CCCCNc1nnc(-c2cc(C)c3cc(OC)cc(C(F)(F)F)c3n2)o1` [Compound 273]: the inhibition at 10 µM came out at 100%.

As to `Cc1cc(-c2nnc(NCCCCCO)s2)nc2c(C(F)(F)F)cc(C3CC3)cc12` [Compound 291], the inhibition at 10 µM came to 99.1%.

Take `Cc1cc(C(=O)NCC2CC2)nc2c(C(F)(F)F)cc(C3CC3)cc12` [Compound 102]: the inhibition at 10 µM is 99.7%.

`Cc1cc(C(=O)NCc2ccccn2)nc2c(C(F)(F)F)cc(C3CC3(C)C)cc12` (stereo not shown) [Compound 142]: the inhibition at 10 µM turned out to be 99.4%.

Regarding `CCOCCNc1nnc(-c2cc(C)c3cc(OC)cc(C(F)(F)F)c3n2)o1` [Compound 276], the inhibition at 10 µM worked out at 97.6%.

Turning to `Cc1cc(C(=O)NCc2cc(C#N)ccn2)nc2c(C(F)(F)F)cc(C3CC3)cc12` [Compound 110], the inhibition at 10 µM is 99.9%.

On to `Cc1cc(-c2nnc(NCCCOP(=O)(O)O)s2)nc2c(C(F)(F)F)cc(C3CC3)cc12` [Compound 287], for which the inhibition at 10 µM was found to be 99.9%.

With `CC(C)=Cc1cc(C(F)(F)F)c2nc(C(=O)NCc3ccccn3)cc(C)c2c1` [Compound 139], the inhibition at 10 µM was determined as 99.7%.

For `O=C(NCC1COCCN1)c1cc(C(F)F)c2cc(C3CC3)cc(C(F)(F)F)c2n1` (stereo not shown) [Compound 213], the inhibition at 10 µM amounted to 88.7%.

`Cc1cc(-c2nnc(NCCOCCO)s2)nc2c(C(F)(F)F)cc(C3CC3)cc12` [Compound 292]: the inhibition at 10 µM is 97.9%.

On to `CNC(=O)CNC(=O)c1cc(C)c2cc(C3CC3)cc(C(F)(F)F)c2n1` [Compound 116], for which the inhibition at 10 µM stood at 97.2%.

Consider `CC(=O)c1cc(C(F)(F)F)c2nc(C(=O)NCc3ccccn3)cc(C)c2c1` [Compound 160], for which the inhibition at 10 µM stood at 93.5%.

As for `Cc1cc(C(=O)NC[C@H]2CCCO2)nc2c(C(F)(F)F)cc(C3CC3)cc12` [Compound 92], the inhibition at 10 µM turned out to be 100%.

`Cc1cc(-c2nnc(NCC(=O)N(C)C)o2)nc2c(C(C)(C)C)cc(C3CC3)cc12` [Compound 281]: the inhibition at 10 µM was determined as 99.8%.

On to `Cc1cc(-c2nnc(NCCCO)s2)nc2c(C(F)(F)F)cc(C3CC3)cc12` [Compound 286], for which the inhibition at 10 µM is 99.9%.

`CCCCOc1cc(C(F)(F)F)c2nc(C(=O)NCc3ccccn3)cc(C)c2c1` [Compound 183]: the inhibition at 10 µM was determined as 88.8%.

With `Cc1cc(C(=O)NCC2CCCCO2)nc2c(C(F)(F)F)cc(C3CC3)cc12` (stereo not shown) [Compound 81], the inhibition at 10 µM turned out to be 100%.

Consider `CCCC(=O)Nc1nnc(-c2cc(C)c3cc(C4CC4)cc(C(F)(F)F)c3n2)o1` [Compound 262], for which the inhibition at 10 µM was 99.7%.

In the case of `Cc1cc(-c2nnc(NCC3COCCN3)s2)nc2c(C(F)(F)F)cc(C3CC3)cc12` (stereo not shown) [Compound 299], the inhibition at 10 µM was 98%.

As for `O=C(NCC1CS(=O)(=O)CCN1)c1cc(Cl)c2cc(OC(F)F)cc(C(F)(F)F)c2n1` (stereo not shown) [Compound 197], the inhibition at 10 µM stood at 92.8%.

On to `Cc1cc(-c2nnc(Nc3ccccc3)o2)nc2c(C(F)(F)F)cc(C3CC3)cc12` [Compound 242], for which the inhibition at 10 µM was found to be 100%.

Consider `Cc1cc(-c2nnc(NCCO)o2)nc2c(C(F)(F)F)cc(C3CC3)cc12` [Compound 255], for which the inhibition at 10 µM worked out at 99.4%.

As for `Cc1cc(-c2nnc(NS(C)(=O)=O)s2)nc2c(C(F)(F)F)cc(C3CC3)cc12` [Compound 289], the inhibition at 10 µM amounted to 70.7%.

Still in this experiment, the particulars now being: Hepatitis C virus, Huh-7, 72 h, HCV1B replicon, Huh-7 cells, 3 days; read-out: EC50_HCV1B_.
For `Cc1cc(C(=O)NC[C@@H]2C[C@](C)(O)CN2)nc2c(C(C)(C)C)cc(C3CC3)cc12` [Compound 429], the EC50 amounted to 294 nM.

`Cc1cc(-c2nnc(NCC3OCCO3)o2)nc2c(C(C)(C)C)cc(OC(F)F)cc12` [Compound 524]: the EC50 amounted to 1.25 nM.

On to `CC(=O)N1CCNC(CNC(=O)c2cc(N)c3cc(OC(F)F)cc(C(F)(F)F)c3n2)C1` (stereo not shown) [Compound 317], for which the EC50 was 9790 nM.

As for `Cc1cc(-c2nnc(NC3CNCC3O)o2)nc2c(C(C)(C)C)cc(C3CC3)cc12` (stereo not shown) [Compound 396], the EC50 stood at 1110 nM.

Regarding `Cc1cc(C(=O)NC[C@@H]2CC3(CN2)OCCO3)nc2c(C(C)(C)C)cc(C3CC3)cc12` [Compound 431], the EC50 worked out at 8.04 nM.

For the compound `Cc1cc(-c2nnc(N(CO)CC3OCCO3)o2)nc2c(C(C)(C)C)cc(C3CC3)cc12` [Compound 404], the EC50 is 2.18 nM.

Take `Cc1cc(-c2nnc(NCCCO)s2)nc2c(C(C)(C)C)cc(C3CC3)cc12` [Compound 380]: the EC50 turned out to be 12.7 nM.

As for `Cc1cc(-c2nnc(N[C@H]3C[C@@H](O)C3)s2)nc2c(C(C)(C)C)cc(OCC(F)(F)F)cc12` [Compound 518], the EC50 came to 51.3 nM.

For the compound `Cc1cc(-c2nnc(N)s2)nc2c(C(C)(C)C)cc(C3CC3)cc12` [Compound 379], the EC50 is 1100 nM.

On to `Cc1nnc(-c2cc(OC(F)(F)F)cc3c(Cl)cc(C(=O)NCc4ccccn4)nc23)o1` [Compound 338], for which the EC50 was 4710 nM.

On to `Cc1cc(C(=O)NC[C@@H]2CS(=O)(=O)CCN2)nc2c(OC(F)(F)F)cc(C3CC3)cc12` [Compound 441], for which the EC50 turned out to be 12.4 nM.

Regarding `Cc1cc(-c2nnc(N[C@H]3C[C@@](O)(CO)C3)o2)nc2c(C(C)(C)C)cc(C3CC3)cc12` [Compound 514], the EC50 came out at 11.2 nM.

With `Cc1cc(C(=O)NC[C@@H]2CSCN2)nc2c(C(C)(C)C)cc(C3CC3)cc12` [Compound 427], the EC50 was found to be 7.44 nM.

For `Cc1cc(C(=O)NC[C@@H]2CS(=O)(=O)CCN2)nc2c(C(C)(C)C)cc(C3CC3)cc12` [Compound 426], the EC50 was determined as 6.27 nM.

Turning to `Cc1cc(-c2nnc(NCCCS(N)(=O)=O)o2)nc2c(C(C)(C)C)cc(C3CC3)cc12` [Compound 393], the EC50 stood at 1200 nM.

Consider `CC(C)(C)c1cc(C2CC2)cc2c(Cl)cc(-c3nnc(Nc4ccccc4)o3)nc12` [Compound 349], for which the EC50 amounted to 26.9 nM.

Take `Cc1cc(-c2nnc(NCC3(CO)CC3)s2)nc2c(C(F)(F)F)cc(C3CC3)cc12` [Compound 306]: the EC50 turned out to be 1410 nM.

In the case of `Cc1cc(-c2nnc(N[C@H]3C[C@](O)(CF)C3)o2)nc2c(C(C)(C)C)cc(OCC(F)(F)F)cc12` [Compound 467], the EC50 turned out to be 0.63 nM.

On to `Cc1cc(-c2nnc(N[C@H]3C[C@@](C)(O)C3)o2)nc2c(C(C)(C)C)cc(OC(F)F)cc12` [Compound 525], for which the EC50 is 0.74 nM.

`CC(F)(F)CNc1nnc(-c2cc(N)c3cc(C4CC4)cc(C(C)(C)C)c3n2)o1` [Compound 346]: the EC50 was 157 nM.

As for `Cc1cc(-c2nnc(NC3CCNC3)o2)nc2c(C(C)(C)C)cc(C3CC3)cc12` (stereo not shown) [Compound 399], the EC50 was 888 nM.

For the compound `Cc1cc(-c2nnc(NC3CC(C)(OCS(C)(=O)=O)C3)o2)nc2c(C(C)(C)C)cc(OCC(F)(F)F)cc12` (stereo not shown) [Compound 495], the EC50 was 38.4 nM.

As to `CNC(=O)[C@@H]1CSC(c2cc(C)c3cc(OC(F)F)cc(C(F)(F)F)c3n2)=N1` [Compound 341], the EC50 turned out to be 3530 nM.

On to `CC(C)(C)c1cc(OCC(F)(F)F)cc2c(N)cc(-c3nnc(Nc4ccccn4)o3)nc12` [Compound 520], for which the EC50 is 0.44 nM.

On to `Cc1cc(-c2nnc(N[C@H]3C[C@H](O)C3)o2)nc2c(C(C)(C)C)cc(C3CC3)cc12` [Compound 422], for which the EC50 was 5.55 nM.

With `CO[C@H]1CN[C@@H](CNC(=O)c2cc(N)c3cc(C4CC4)cc(C(C)(C)C)c3n2)C1` [Compound 327], the EC50 worked out at 16.5 nM.

Take `Cc1cc(-c2nnc(NCC3OCCO3)o2)nc2c(C(C)(C)O)cc(C3CC3)cc12` [Compound 542]: the EC50 amounted to 43.8 nM.

Take `Cc1cc(-c2nnc(N[C@H]3C[C@H](O)C3)o2)nc2c(C(C)(C)C)cc(OCC(F)(F)F)cc12` [Compound 463]: the EC50 stood at 3.76 nM.

In the case of `Cc1cc(-c2nnc(NC[C@H]3C[C@@H](O)C3)o2)nc2c(C(C)(C)C)cc(C3CC3)cc12` [Compound 417], the EC50 came to 6.11 nM.

For `CCO[C@H]1CN[C@H](CNC(=O)c2cc(N)c3cc(C4CC4)cc(C(C)(C)C)c3n2)C1` [Compound 330], the EC50 worked out at 19.8 nM.

In the case of `CSCOC1(C)CC(Nc2nnc(-c3cc(C)c4cc(OCC(F)(F)F)cc(C(C)(C)C)c4n3)o2)C1` (stereo not shown) [Compound 494], the EC50 was 43.1 nM.

For the compound `Cc1cc(C(=O)NC[C@@H]2CC3(CN2)OCCO3)nc2c(C(C)(C)C)cc(OCC(F)(F)F)cc12` [Compound 510], the EC50 turned out to be 9.8 nM.

The experiment is the same for the next values; noted with them: Hepatitis C virus, Huh-7, 72 h; read-out: EC50_HCV1B_.
In the case of `Cc1cc(-c2nnc(N[C@H]3C[C@@H](O)C3)o2)nc2c(C(C)(C)C)cc(OCC(C)(C)O)cc12` [Compound 536], the EC50 is 31.4 nM.

In the case of `Cc1cc(-c2nnc(N[C@H]3C[C@@](CF)(OP(=O)(O)O)C3)o2)nc2c(C(C)(C)C)cc(OCC(F)(F)F)cc12` [Compound 470], the EC50 came out at 0.72 nM.
